Measurements: paper PMC9098913, “In vitro reconstitution of Escherichia coli divisome activation” (Nature Communications, 2022)
“And” between values parts separate entries of the source, which are not always exact repeats. Equal entries are not always repeated. Where two headings read alike, the source gives them in different places.

B1: FtsA R286W (protein)
chain: MIKATDRKLVVGLEIGTAKVAALVGEVLPDGMVNIIGVGSCPSRGMDKGGVNDLESVVKCVQRAIDQAELMADCQISSVYLALSGKHISCQNEIGMVPISEEEVTQEDVENVVHTAKSVRVRDEHRVLHVIPQEYAIDYQEGIKNPVGLSGVRMQAKVHLITCHNDMAKNIVKAVERCGLKVDQLIFAGLASSYSVLTEDERELGVCVVDIGGGTMDIAVYTGGALRHTKVIPYAGNVVTSDIAYAFGTPPSDAEAIKVRHGCALGSIVGKDESVEVPSVGGRPPWSLQRQTLAEVIEPRYTELLNLVNEEILQLQEKLRQQGVKHHLAAGIVLTGGAAQIEGLAACAQRVFHTQVRIGAPLNITGLTDYAQEPYYSTAVGLLHYGKESHLNGEAEVEKRVTASVGSWIKRLNSWLRKEF
modifications: Cy3 or Cy5 at the N-terminus in the labelled form (labelled CLEPTGG peptide conjugated to the 5xGly tag by sortagging); unlabelled protein also used; left off: TwinStrep-SUMO, N-terminal, cleaved | 5x

Key:
[1] = Single-molecule diffusion coefficient of FtsA on the membrane; conditions: for Diffusion Coefficient: single-particle tracking, n = 3; for Single Molecule Diffusion Constant, mean: mean of Exp. 1-3, n = 3, Fig. 3b
Procedure: First, we studied the behaviour of single FtsA proteins on the membrane surface.
After 5 min of incubation, single molecule time lapses were acquired every 125, 250, 500, and 1000 and 2000 ms, with an exposure time of 50 ms. Subsequently, the bulk concentration of FtsA was increased to 0.2/0.4/0.8 µM and time lapses were repeated as described above.
Single molecules of FtsA or FtsZ were tracked using the TrackMate plugin from ImageJ[43]. To obtain the residence time of FtsZ and FtsA, we performed a residence time analysis as described before[40],[47]. Shortly, single molecules were imaged at different acquisition rates (0.1–2 s) and the lifetime of the molecules was extracted from each data set. To account for photobleaching effect, the obtained lifetimes were plotted against the acquisition rate. […] Furthermore, we extracted the diffusion coefficient of FtsA single molecules at increasing concentrations. For this, we filtered the obtained data, by considering only trajectories which are present on the membrane for more than 0.4 s. […] Subsequently, the diffusion coefficient of FtsA molecules was estimated by fitting an MSD curve to each individual trajectory.

FtsZ = conditions: for Pearson correlation coefficient (PCC) FtsA/FtsZ: 1.25 µM FtsZ
Procedure: Additionally, the reaction chamber contained 4 mM ATP and 4 mM GTP, as well as a scavenging system to minimize photobleaching effects: 30 mM d-glucose, 0.050 mg ml^−1 Glucose Oxidase, 0.016 mg ml^−1 Catalase, 1 mM DTT and 1 mM Trolox. Prior addition of all components a corresponding buffer volume was removed from the chamber to obtain a total reaction volume of 100 µl. The dynamic protein pattern was monitored by time-lapse TIRF microscopy at one frame per 2 s and 50 ms exposure time.
Time-lapse videos were first intensity-corrected and contrast-enhanced to avoid bleaching effects and simplify subsequent analysis. To remove contributions of X–Y drift, the videos were processed with the Linear Stack Alignment with SIFT plugin. […] Subsequently, regions of interest (ROIs) in the center of the stacks were chosen for colocalization analysis. The Pearson’s correlation coefficient (PCC) was quantified with the Image CorrelationJ 1o plugin. To extract information about the relative ratio of FtsZ/FtsA molecules (slope of linear regression), we also used the Image CorrelationJ 1o plugin. As an output, the plugin provides a scatterplot of FtsZ vs FtsA intensities, to which we fitted a linear slope y=k⋅x+d , where k is the slope and d the offset. The slope was used as an estimate for the ratio of FtsA molecules below FtsZ filaments[42].

[2] = 0.1µM FtsA, replicate 1 (row printed 'goo')
[3] = 0.2µM FtsA, replicate 1 (row printed 'goo')
[4] = 0.4 µM FtsA, mean ± s.d., WT vs R286W p-value 1.28 × 10^−5
[5] = 0.4µM FtsA, replicate 1 (row printed 'goo')
[6] = 0.8µM FtsA, replicate 1 (row printed 'goo')

Molecule | Single Molecule Diffusion Constant ([1]; 0.1 µM FtsA, Exp. 1) [µm2/s] | Single Molecule Diffusion Constant ([1]; 0.1µM FtsA, Exp. 2) [µm2/s] | Single Molecule Diffusion Constant ([1]; 0.1 µM FtsA, Exp. 3) [µm2/s] | Diffusion Coefficient ([1]; 0.1 µM FtsA) [µm^2/s] | Single Molecule Diffusion Constant ([1]; 0.2 µM FtsA, Exp. 1) [µm2/s] | Single Molecule Diffusion Constant ([1]; 0.2µM FtsA, Exp. 2) [µm2/s] | Single Molecule Diffusion Constant ([1]; 0.2 µM FtsA, Exp. 3) [µm2/s] | Single Molecule Diffusion Constant ([1]; 0.4 µM FtsA, Exp. 1) [µm2/s] | Single Molecule Diffusion Constant ([1]; 0.4µM FtsA, Exp. 2) [µm2/s] | Single Molecule Diffusion Constant ([1]; 0.4 µM FtsA, Exp. 3) [µm2/s] | Single Molecule Diffusion Constant ([1]; 0.8 µM FtsA, Exp. 1) [µm2/s] | Single Molecule Diffusion Constant ([1]; 0.8µM FtsA, Exp. 2) [µm2/s] | Single Molecule Diffusion Constant ([1]; 0.8 µM FtsA, Exp. 3) [µm2/s] | Diffusion Coefficient ([1]; 0.8 µM FtsA) [µm^2/s] | PCC FtsZ/FtsA (FtsZ; 0.1µM FtsA, Exp. 2) | PCC FtsZ/FtsA (FtsZ; [2]) | PCC FtsZ/FtsA (FtsZ; 0.2µM FtsA, Exp. 2) | PCC FtsZ/FtsA (FtsZ; [3]) | Pearson correlation coefficient (PCC) FtsA/FtsZ (FtsZ; [4]) | PCC FtsZ/FtsA (FtsZ; 0.4µM FtsA, Exp. 2) | also measured
FtsA WT: wild-type E. coli actin-homologue FtsA, membrane anchor of FtsZ | 0.1660 | 0.0799 | 0.1610 | 0.14 ± 0.04 | 0.0839 | 0.0498 | 0.0248 | 0.0130 | 0.0096 | 0.0225 | 0.0048 | 0.0025 | 0.0035 | 0.004 ± 0.001 | 0.79 | 0.77 | 0.62 | 0.61 | 0.32 ± 0.12 | 0.40 | Single Molecule Diffusion Constant, mean ([1]; 0.2 µM FtsA): 0.053 µm2/s and 0.0528 µm2/s; Single Molecule Diffusion Constant, mean ([1]; 0.4 µM FtsA): 0.015 µm2/s and 0.0150 µm2/s; Pearson correlation coefficient (PCC) FtsA/FtsZ (FtsZ; 0.1 µM FtsA, steady state about 15 min, mean ± s.d.): 0.78 ± 0.04; Pearson correlation coefficient (PCC) FtsA/FtsZ (FtsZ; 0.2 µM FtsA, steady state about 15 min, mean ± s.d.): 0.69 ± 0.06; PCC FtsZ/FtsA (FtsZ; [5]): 0.43; Pearson correlation coefficient (PCC) FtsA/FtsZ (FtsZ; 0.8 µM FtsA, mean ± s.d.): 0.27 ± 0.09; PCC FtsZ/FtsA (FtsZ; 0.8µM FtsA, Exp. 2): 0.29; PCC FtsZ/FtsA (FtsZ; [6]): 0.38
B1 | 0.4979 | 0.3931 | 0.3496 | 0.42 ± 0.06 | 0.1893 | 0.1662 | 0.2033 | 0.1363 | 0.0718 | 0.1951 | 0.0600 | 0.0636 | 0.0391 | 0.05 ± 0.01 | 0.41 | 0.73 | 0.77 | 0.89 | 0.84 ± 0.05 | 0.83 | Single Molecule Diffusion Constant, mean ([1]; 0.8 µM FtsA): 0.054 µm2/s and 0.0542 µm2/s; PCC FtsZ/FtsA (FtsZ; [5]): 0.89; PCC FtsZ/FtsA (FtsZ; 0.8µM FtsA, Exp. 2): 0.83; PCC FtsZ/FtsA (FtsZ; [6]): 0.88; Pearson correlation coefficient (PCC) FtsA/FtsZ (FtsZ; all concentrations tested (0.1–0.8 µM)): around 0.8
